This is an account of results in patent US10618918B2, “Substituted boronic acids as antimicrobials” (priority 2015, dated 2020).

One experiment has as its system KP1009 CTX-M-15. The experiment is described as follows: Aztreonam potentiation (MPC@4), strain KP1009 CTX-M-15.
Another experiment has as its system KP1010 SHV-12. Description: Aztreonam potentiation (MPC@4), strain KP1010 SHV-12.
A further experiment deals with ec302 TEM-10. The experiment is described as follows: Aztreonam potentiation (MPC@4), strain ec302 TEM-10.
The test system of a further experiment is EC1010 CMY-6. The experiment is described as follows: Aztreonam potentiation (MPC@4), strain EC1010 CMY-6.
Experiment [1] relates to KP1004 KPC-2. Description: Aztreonam potentiation (MPC@4), strain KP1004 KPC-2.
The test system of experiment [2] is KP1005 CTX-M-14. The experiment is described as follows: Aztreonam potentiation (MPC@4), strain KP1005 CTX-M-14. The note with it: read-out: Aztreonam MIC.
For a further experiment, the system named is ec308 SHV-5. The experiment is described as follows: Aztreonam potentiation (MPC@4), strain ec308 SHV-5.
For the next experiment, the system named is KP1086 OXA-48. The experiment is described as follows: Biapenem potentiation (MPC@1), strain KP1086 OXA-48. The class given is cell-based. The note with it: minimum BLI concentration inhibiting growth with biapenem 1 μg/mL; tested up to 40 μg/mL. The method, then:
(§1) Biapenem was present in the test medium at 1 μg/mL. […] Table 3 summarizes the BLI potency of biapenem potentiation (MPC@1) for two strains overexpressing class A (KPC) and class D (OXA-48) carbapenemases. Biapenem MIC for each strain is also shown.

Experiment [3] concerns KP1005 CTX-M-14. Description: Tigemonam potentiation (MPC@4), strain KP1005 CTX-M-14.
Experiment [4] relates to KP1004 KPC-2. Description: Biapenem potentiation (MPC@1), strain KP1004 KPC-2. It is filed as cell-based. The note with it: minimum BLI concentration inhibiting growth with biapenem 1 μg/mL; tested up to 40 μg/mL. The procedure: as §1
A further experiment in a line: biochemical. The class given is biochemical.
Experiment [5] concerns the target purified class A, C and D enzymes (β-lactamases) (Enterobacter cloacae, UniProt P05364). Description: biochemical. It is filed as biochemical.
The target in experiment [6] is purified class A, C and D enzymes (β-lactamases) (Klebsiella pneumoniae, UniProt Q6XEC0). The experiment is described as follows: biochemical. It is filed as biochemical.
Experiment [7] addresses T1, purified class A, C and D enzymes (β-lactamases) (UniProt P0AD64, L31Q/G234S/E235K, species not given).
T1 construct: Ki (SHV-12, NCF), uM; other: purified SHV-12; nitrocefin (NCF) as reporter substrate
T1 sequence (P0AD64 1-286 L31Q/G234S/E235K): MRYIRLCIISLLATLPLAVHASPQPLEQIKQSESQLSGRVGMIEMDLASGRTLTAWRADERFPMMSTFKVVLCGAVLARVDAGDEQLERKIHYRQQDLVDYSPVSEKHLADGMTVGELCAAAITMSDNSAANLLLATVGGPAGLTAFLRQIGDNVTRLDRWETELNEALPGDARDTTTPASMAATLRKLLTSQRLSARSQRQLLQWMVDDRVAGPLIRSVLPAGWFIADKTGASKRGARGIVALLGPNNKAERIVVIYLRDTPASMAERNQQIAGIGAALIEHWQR
Description: biochemical. The note with it: read-out: Ki (SHV-12, NCF); purified SHV-12; nitrocefin (NCF) as reporter substrate. The class given is biochemical.

In experiment [8] the target is T2, purified class A, C and D enzymes (β-lactamases) (Pseudomonas aeruginosa, UniProt P24735).
T2 construct: rows headed: Ki (Pa-AmpC, NCF), uM; other: purified Pa-AmpC; nitrocefin (NCF) as reporter substrate
The experiment is described as follows: biochemical. It is filed as biochemical.

Experiment [9] deals with purified class A, C and D enzymes (β-lactamases) (Escherichia coli, UniProt Q9L5C7). Description: biochemical. It is filed as biochemical.
The target of experiment [10] is purified class A, C and D enzymes (β-lactamases) (Klebsiella pneumoniae, UniProt Q9F663). Description: biochemical. The class given is biochemical.
The subject of another experiment is PAM1154/KPC-2. The experiment is described as follows: Biapenem potentiation MPC64 in PAM1154/KPC-2 (efflux deficient, lacks MexAB-OprM). The class given is cell-based, Pseudomonas aeruginosa. The method, then:
(§2) Efflux of BLIs from Pseudomonas aeruginosa by the MexAB-OprM efflux pump was also evaluated. The plasmid expressing the gene encoding KPC-2 was introduced into two strains of P. aeruginosa, PAM1032 and PAM 1154 that overexpressed or lacked MexAB-OprM, respectively. […] Potency of BLIs to potentiate biapenem in these strains was determined.

In another experiment the test system is AB1053 OXA-72. The experiment is described as follows: Meropenem potentiation (MPC@8), strain AB1053 OXA-72. It is filed as cell-based, Acinetobacter baumannii. The note with it: minimum BLI concentration inhibiting growth with meropenem 8 μg/mL; tested up to 20 μg/mL.
The subject of another experiment is ECL1002. Description: Aztreonam potentiation (MPC@4), strain ECL1002. The note with it: minimum BLI concentration inhibiting growth with aztreonam 4 μg/mL; tested up to 40 μg/mL.
In the next experiment the test system is PAM1032/KPC-2. The experiment is described as follows: Biapenem potentiation MPC64 in PAM1032/KPC-2 (efflux proficient, overexpresses MexAB-OprM). The class given is cell-based, Pseudomonas aeruginosa. The procedure:
as §2

A further experiment deals with AB1054 OXA-23. The experiment is described as follows: Meropenem potentiation (MPC@8), strain AB1054 OXA-23. It is filed as cell-based, Acinetobacter baumannii.
The mark [11] stands for this setting: minimum BLI concentration inhibiting growth with aztreonam 4 μg/mL, tested up to 40 μg/mL.

Some results are limits rather than exact numbers.

T2 sequence (P24735 whole entry): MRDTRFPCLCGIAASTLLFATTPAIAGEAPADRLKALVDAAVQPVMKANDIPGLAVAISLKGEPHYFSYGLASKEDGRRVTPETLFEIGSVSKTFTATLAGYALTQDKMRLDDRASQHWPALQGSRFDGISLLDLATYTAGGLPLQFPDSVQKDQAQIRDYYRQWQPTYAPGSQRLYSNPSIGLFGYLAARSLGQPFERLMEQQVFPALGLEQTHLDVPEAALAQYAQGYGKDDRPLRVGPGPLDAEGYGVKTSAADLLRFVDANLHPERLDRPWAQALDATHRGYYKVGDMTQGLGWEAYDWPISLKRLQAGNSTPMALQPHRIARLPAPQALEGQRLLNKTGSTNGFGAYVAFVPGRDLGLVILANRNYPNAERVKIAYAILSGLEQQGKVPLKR
purified class A, C and D enzymes (β-lactamases) (Escherichia coli, UniProt Q9L5C7), sequence (Q9L5C7 entry or part of it): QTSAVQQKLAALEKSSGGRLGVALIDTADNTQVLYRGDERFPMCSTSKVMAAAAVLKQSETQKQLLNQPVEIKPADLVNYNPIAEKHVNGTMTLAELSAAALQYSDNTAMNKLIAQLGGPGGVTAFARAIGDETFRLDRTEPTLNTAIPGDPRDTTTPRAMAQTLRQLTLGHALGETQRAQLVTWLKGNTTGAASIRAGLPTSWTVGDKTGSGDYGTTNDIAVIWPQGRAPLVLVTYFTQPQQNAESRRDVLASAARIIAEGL
purified class A, C and D enzymes (β-lactamases) (Enterobacter cloacae, UniProt P05364), sequence (P05364 21-381): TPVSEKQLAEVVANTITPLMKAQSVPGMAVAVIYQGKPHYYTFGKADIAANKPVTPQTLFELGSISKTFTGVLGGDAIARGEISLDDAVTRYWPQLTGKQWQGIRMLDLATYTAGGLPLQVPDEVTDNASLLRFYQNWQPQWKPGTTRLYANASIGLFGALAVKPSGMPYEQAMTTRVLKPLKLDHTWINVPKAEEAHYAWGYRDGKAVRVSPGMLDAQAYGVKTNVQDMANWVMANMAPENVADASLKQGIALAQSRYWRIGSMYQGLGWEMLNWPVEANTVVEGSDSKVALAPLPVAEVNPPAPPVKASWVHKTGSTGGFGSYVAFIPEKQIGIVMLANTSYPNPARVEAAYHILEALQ

For `C[C@H]1[C@H](NC(=O)/C(=N\OC(C)(C)C(=O)O)c2csc(N)n2)C(=O)N1S(=O)(=O)O` [Aztreonam, reference compound], the minimal inhibitory concentration (MIC) is > 128 µg/mL in the experiment with KP1009 CTX-M-15 (read-out: Aztreonam MIC); 64 µg/mL in the experiment on KP1010 SHV-12 (read-out: Aztreonam MIC); 128 µg/mL in the experiment on ec302 TEM-10 (read-out: Aztreonam MIC); > 128 µg/mL in the experiment on EC1010 CMY-6 (read-out: Aztreonam MIC); > 128 µg/mL in the experiment on KP1004 KPC-2 [1] (read-out: Aztreonam MIC); > 128 µg/mL with KP1005 CTX-M-14 [2]. The MIC with ec308 SHV-5 (read-out: Aztreonam MIC) was > 128 µg/mL.
Turning to `COc1ccc2c(c1C(=O)[O-])O[B-](O)(O)CC2.[Na+].[Na+]` [Compound 7, DISODIUM; 4,4-DIHYDROXY-8-METHOXY-5-OXA-4-BORANUIDABICYCLO[4.4.0]DECA-1(6),7,9-TRIENE-7-CARBOXYLATE], the “AZT MPC4 CTX-M-15 KP1009” value in the experiment with KP1009 CTX-M-15 (setting [11]) is reported as “X (X = MPC@4 ≤ 5 μg/mL)”. In addition, in the experiment on KP1086 OXA-48, the “BPM MPC1 OXA-48 KP1086” value is given as “X (X = MPC@1 ≤ 5 μg/mL)”. Also, in the experiment with KP1010 SHV-12, the “AZT MPC4 SHV-12 KP1010” value is listed as “X (key: X = MPC@4 ≤ 5 μg/mL; Y = 5 μg/mL < MPC@4 ≤ 20 μg/mL; Z = MPC@4 > 20 μg/mL)”. Moreover, the “TIG MPC4 CTX-M-14 KP1005” value in the experiment with KP1005 CTX-M-14 [3] is on record as “X (key: X = MPC@4 ≤ 5 μg/mL; Y = 5 μg/mL < MPC@4 ≤ 20 μg/mL; Z = MPC@4 > 20 μg/mL)”. The “AZT MPC4 TEM-10 ec302” value in the experiment on ec302 TEM-10 (setting [11]) is “X (X = MPC@4 ≤ 5 μg/mL)”. Besides, in the experiment on KP1004 KPC-2 [4], the “BPM MPC1 KP1004 KPC-2” value is listed as “X (X = MPC@1 ≤ 5 μg/mL)”. Also, the inhibition constant Ki (in “biochemical”; in experiment [7]; in experiment [8]) was < 100 nM throughout. The “Ki (P99, NCF), uM” value in experiment [5] is “X (key: X = Ki ≤ 0.1 μM; Y = 0.1 μM < Ki ≤ 1 μM; Z = Ki > 1 μM)”. The “Ki (OXA-48, NCF), uM” value in experiment [6] is given as “X (key: X = Ki ≤ 0.1 μM; Y = 0.1 μM < Ki ≤ 1 μM; Z = Ki > 1 μM)”. Moreover, in experiment [9], the “Ki (CTX-M-14, NCF), uM” value is listed as “X (key: X = Ki ≤ 0.1 μM; Y = 0.1 μM < Ki ≤ 1 μM; Z = Ki > 1 μM)”. In addition, the “Ki (KPC-2, NCF), uM” value in experiment [10] was “X (key: X = Ki ≤ 0.1 μM; Y = 0.1 μM < Ki ≤ 1 μM; Z = Ki > 1 μM)”. In the experiment on EC1010 CMY-6, the “AZT MPC4 CMY-6 EC1010” value is “X (key: X = MPC@4 ≤ 5 μg/mL; Y = 5 μg/mL < MPC@4 ≤ 20 μg/mL; Z = MPC@4 > 20 μg/mL)”. Moreover, the “AZT MPC4 KPC-2 KP1004” value in the experiment with KP1004 KPC-2 [1] is listed as “X (key: X = MPC@4 ≤ 5 μg/mL; Y = 5 μg/mL < MPC@4 ≤ 20 μg/mL; Z = MPC@4 > 20 μg/mL)”. Moreover, the “PAM1154/KPC-2 Biapenem MPC64” value in the experiment with PAM1154/KPC-2 is 0.6. Besides, the “MPM MPC8 AB1053 OXA-72” value in the experiment with AB1053 OXA-72 is given as “X (X = MPC@1 ≤ 5 μg/mL)”. Further, in the experiment with ECL1002, the “AZT MPC4 ECL1002” value is “X (X = MPC@4 ≤ 5 μg/mL)”. Besides, in the experiment on PAM1032/KPC-2, the “PAM1032/KPC-2 Biapenem MPC64” value came to 2.5. In addition, the “AZT MPC4 SHV-5 ec308” value with ec308 SHV-5 (setting [11]) is “X (X = MPC@4 ≤ 5 μg/mL)”. Moreover, in the experiment with AB1054 OXA-23, the “MPM MPC8 AB1054 OXA-23” value was “X (key: X = MPC@1 ≤ 5 μg/mL; Y = 5 μg/mL < MPC@1 ≤ 20 μg/mL; Z = MPC@1 > 20 μg/mL)”.
